The subject of data set [1] is normal, healthy, adult male and female volunteers. In words: Safety assessment (Example 5). As to the method:
(§1) In Example 5, a single center, placebo controlled, double-blind, randomized 9-treatment, 3 period crossover trial with an open-label screening phase was conducted.

In data set [2] the test system is subjects receiving methadone maintenance therapy. In words: Double-blind crossover, subjective and physiologic opioid agonist/antagonist measures (Example 6).
The test system of data set [3] is minute ventilation in normal, healthy, adult male and female volunteers. In words: CO2 rebreathing test, double-blind crossover trial (Example 5). As to conditions: oral NTX 0.125 to 8.0 mg with 15, 20 or 25 mg oral HYIR. The data set is classed as in vivo, human. As to the method:
as §1

In data set [4] the test system is subjects on methadone maintenance therapy. Nature of the data set: Open-label naltrexone titration safety assessment (Example 6). The data set is classed as in vivo, human. As to conditions: 2 subjects, 30 mg hydrocodone at 0 hr, naltrexone at hourly intervals, oral. As to the method:
Example 6 consisted of open-label and double-blind treatment phases conducted in male and female subjects receiving daily oral methadone maintenance doses from 60 to 90 mg. The methadone maintenance dose was given to the subject the day before each scheduled period. Administration of study medication occurred no sooner than 16 hours and no later than 22 hours after the methadone maintenance dose was given. 14 subjects were enrolled in the study (2 subjects, open-label phase (ascending dose naltrexone safety assessment) and 12 subjects, double-blind phase).
The open-label phase was a safety assessment of the 2 naltrexone doses (0.75 and 2.0 mg) planned in the protocol in subjects on methadone maintenance therapy. This phase of the study consisted of a screening visit conducted up to 14 days before administration of study drug, and a naltrexone titration visit. During the naltrexone titration visit, 2 subjects were to receive 30 mg of hydrocodone and 0.125 mg of naltrexone at 0 hr, with additional doses of naltrexone, up to a cumulative dose of 2.0 mg, administered at hourly intervals over the next 4 hours. In the open-label phase, neither subject received more than a 1.0-mg cumulative dose of naltrexone before rescue with methadone was required. […]

Data set [5] has as its system subjects receiving methadone maintenance therapy. In words: Safety measures, double-blind phase (Example 6). The data set is classed as in vivo, human. As to conditions: with increasing NTX dose; most mild or moderate.
The test system of data set [6] is healthy volunteers with hyperalgesia. Nature of the data set: Thermal Discomfort and Pain Latency testing (Example 7). The data set is classed as in vivo, human. As to the method: (§2) Example 7 consisted of a single center trial conducted as a placebo-controlled, double-blind, randomized, 4-treatment, 4-period crossover study, which included a single-blind phase. Each treatment sequence consisted of 4 treatment periods, each of 4 hours duration, separated by at least a 5-day washout interval. […] The total duration of this study, including screening, was approximately 52 days.
(§3) After at least 5 days, those subjects who successfully completed the single-blind phase were randomized into the double-blind phase of the study. Healthy male and female volunteers were enrolled in this study.
A test site and a control site were selected on each forearm and marked with a washable marker. Next, the topical anesthetic was applied to the test site. After approximately 1.5 hours (allowing for the anesthetic to take effect), the cream was removed and a thermal stimulus was applied to the test site for 3 minutes using a copper mass heated to 52° C. […]
Thermal Discomfort testing was designed to measure a subject's perception of discomfort following a 5-second contact with a warmed 1″ diameter copper mass (Uniformed Services University of the Health Sciences, Bethesda, Md.). […] The distance from the left anchor to the vertical mark was measured and was used as the quantitative measure of Thermal Discomfort. […]

The test system is the same in data set [7]. In words: Pupillometry (Example 7). The data set is classed as in vivo, human. As to the method: Each treatment sequence consisted of 4 treatment periods, each of 4 hours duration, separated by at least a 5-day washout interval. […] The total duration of this study, including screening, was approximately 52 days.
as §3
(§4) The same test measurements conducted at baseline were then conducted at 0.5, 1, 2, 3, and 4 hours postdosing. Thermal Discomfort and Pain Latency testing were conducted at each time point on the control site (area on the other forearm, which was not subjected to the thermal stimulus). Testing on the control site was done prior to the test site for each time point. Each subject rested and recovered for no less than 5 days before returning for the next period. In the follow-up phase, subjects returned to the clinic within 7 days after completion of the study for a final check of the test site and a review of the subject's laboratory data prior to official discharge from the study.
Pupillometry was performed to measure the effect of the study treatment on pupil diameter. The pupil was photographed using a Polaroid One-Step Closeup Camera (Polaroid Corporation, Cambridge, Mass.) with modified 2× magnification oculars (John Hopkins University, Baltimore, Md.) and Polaroid 600 color film (Polaroid Corporation, Cambridge, Mass.). […] The camera was positioned on the subject's eye socket, aligning the iris with the middle of the opening of the lens adapter. The pupil diameter was measured from the photograph, in millimeters, using Model CD-6C Mitutoyo digital calipers (Judge Tool Sales, Southport, Conn.). The same eye was measured at all times for each subject.

The test system is the same in data set [8]. Nature of the data set: Subjective Symptom Rating Scale and Drug Rating Questionnaire (Example 7). The data set is classed as in vivo, human. The protocol:
as §2, §3, §4
The Symptom Rating Scale Questionnaire consisted of 25 items. […]

In the next data set the test system is healthy volunteers. Nature of the data set: Safety and adverse events (Example 7). The data set is classed as in vivo, human. The protocol:
as §2
An AE (adverse event) was defined as any unfavorable and unintended sign (including abnormal laboratory findings), symptom or disease temporally associated with the use of a medicinal product, whether or not considered related to the medicinal product. An AE was classified as a TEAE (treatment emergent adverse event) only if the AE occurred after the first dose of the study drug was administered to a subject who was enrolled in the study. The period of observation for TEAEs was from the time that the first dose of study medication was administered until release from the study after completion of period 4 or at early discontinuation. All AEs reported by the subject or observed by the investigator/study staff were fully documented throughout the study. When AEs were encountered that required medical intervention, appropriate supportive and/or definitive therapy was provided by appropriately qualified and licensed medical personnel. […]

Where [9] appears, read: 0.25-mg NTX dose with 30 mg HYIR.
The mark [10] stands for this setting: 0.5-mg NTX dose with 30 mg HYIR.

Entries after “also recorded” stand apart in the source; their conditions may differ.

For the compound `COc1ccc2c3c1O[C@H]1C(=O)CC[C@H]4[C@@H](C2)N(C)CC[C@]314.O=C(O)C(O)C(O)C(=O)O` [HYIR, Hydrocodone bitartrate], in data set [1] (15-, 20-, or 25-mg doses of HYIR), the safety concerns result was “no new safety concerns”. For the same compound, in data set [2] (30 mg HYIR plus NTX placebo), the “changes from predose in all pharmacodynamic variables” value is recorded as “minimal changes from predose” and the “subjects requiring a rescue dose of methadone” value is 4 of the 12. Further, the “subjective or physiologic opioid agonist activity” value in [2] (30-mg oral dose of HYIR) was “did not produce significant subjective or physiologic opioid agonist activity”. The “trend of treatment means (PDmax and AUC) over the 3 periods, FIGS. 1-12” value in data set [2] (HYIR+NTX placebo treatment) was “increase in subjective and physiologic opioid agonist effects”.
Turning to `O=C1CC[C@@]2(O)[C@H]3Cc4ccc(O)c5c4[C@@]2(CCN3CC2CC2)[C@H]1O5` [NTX, Naltrexone HCI], the “effect on HYIR-induced respiratory depression (% MPE20, % MPE30, double-blind MPE20 and MPE30)” value in [3] is recorded as “statistically significant trend toward less respiratory depression; also recorded: blocked respiratory depression”. Also, the safety concerns entry in data set [1] (NTX 0.125 to 8.0 mg combined with 15, 20 or 25 mg HYIR) is listed as “no new safety concerns”. In addition, the “cumulative dose of naltrexone received before rescue with methadone was required” value in [4] is recorded as no more than 1.0 mg. Further, the “treatment-emergent adverse events commonly associated with opioid withdrawal per subject” value in [5] was “increase in the number of treatment-emergent adverse events”. The “difference vs HYIR+placebo NTX in mean Thermal Discomfort VAS scores, Pain Latency, derived pharmacodynamic metrics of hyperalgesia” value in data set [6] (15 mg HYIR + 0.25-, 0.5-, or 1.0-mg NTX, oral) is “no statistically significant differences”. Besides, the “reduction of the analgesia produced by 15 mg oral HYIR (Thermal Discomfort VAS scores and Pain Latency testing)” value in data set [6] (NTX 0.25, 0.5, or 1.0-mg) is “None of the doses of NTX used in this study (0.25, 0.5, or 1.0-mg) produced a statistically significant reduction”. Besides, the “statistically significant increase in pupil diameter PDmax compared with HYIR+placebo NTX” value in data set [7] (HYIR+0.5 mg NTX and HYIR+1.0-mg NTX) is reported as “not”. Further, the “NTX dose-related effect on the physiologic opioid agonist activity of the 15-mg dose of HYIR” value in data set [7] (NTX 0.25, 0.5, 1.0 mg) is listed as “no consistent NTX dose-related effect”. For the same compound, in [7] (all NTX doses (0.25, 0.5, 1.0 mg) with 15 mg HYIR), the HYIR-induced pupil constriction entry is listed as “reduced HYIR-induced pupil constriction”. Further, in [8] (15 mg HYIR with placebo, 0.25, 0.5 or 1.0 mg NTX), the “subjective opioid agonist effects of HYIR (Subjective Symptom Rating Scale and Subjective Drug Rating Questionnaire)” value was “no statistically significant differences among the treatments or consistent NTX dose-related trends”. Further, the “NTX dose-related effect on the subjective opioid agonist activity of the 15-mg dose of HYIR” value in data set [8] (NTX 0.25, 0.5, 1.0 mg) is given as “no consistent NTX dose-related effect”. Further, the “number of reported TEAEs commonly associated with opioid use” value in the data set on healthy volunteers (15 mg HYIR with increasing NTX dose) is “decreased with increased NTX dose”. Also, in the data set on healthy volunteers (15 mg of oral HYIR combined with 0.25, 0.5, or 1.0-mg NTX), the safety concerns result is on record as “no safety concerns”. Also, the “aversive effects in methadone-maintained subjects” value in data set [2] (0.25- and 0.5-mg oral NTX doses) is listed as “elicit aversive effects”. Also, in [2] (setting [9]), the “negative feeling states and antagonist activity (precipitated withdrawal)” value is “threshold dose with a trend toward negative feeling states”; the “subjects requiring a rescue dose of methadone” value is “Approximately 60%”. Moreover, in [2] (setting [10]), the “difference from NTX placebo treatment in mean PDmax, all queries except "Feeling sick"” value is given as “statistically significant differences”; the “precipitated withdrawal (Drug Effects Scales, antagonist total score, pupil diameter vs NTX placebo)” value is “strong evidence of precipitated withdrawal”; the “subjects requiring a rescue dose of methadone” value is given as roughly 90%. Also, the “negative feeling states and precipitated withdrawal, dose dependence” value in data set [2] (NTX 0.25 and 0.5 mg with 30 mg HYIR) was “dose-dependent increases in negative feeling states and precipitated withdrawal”. Besides, the “effect on all secondary pharmacodynamic variables except the agonist total scores from the Subjective and Observer Symptom Rating Scales” value in [2] (NTX 0.25 and 0.5 mg with 30 mg HYIR, not always statistically significant) is reported as “dose-related effect”. Also, the “effect on mean PDmax values for all 4 queries on the Subjective Drug Effects Scale” value in data set [2] (NTX 0.25 to 0.5 mg with 30 mg HYIR) is given as “dose-related effect”. In data set [2] (low dose NTX added to HYIR, subjects physically dependent on opioids), the “appeal and abuse liability potential of HYIR” value is given as “decreased the appeal”.

These data come from US20060194826A1, “Pharmaceutical combinations of hydrocodone and naltrexone” (EURO-CELTIQUE S.A., priority 2003, published 2006).
